Assay [1] deals with Hedgehog pathway activation (GLi-luciferase reporter) in Shh Light II reporter cells. Description: Hedgehog pathway activation on Shh Light II reporter cells measured by luciferase activity. The format is cell-based. The procedure, abridged:
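Shh Light II reporter cells carrying a hedgehog-responsive GLi-luciferase reporter were stimulated either with 500 nM SAG, a direct Smoothened agonist, or with conditioned media containing human Sonic Hedgehog (hShh). Test compounds were evaluated for blocking this pathway activation, quantified by luciferase activity. Cell viability was monitored in parallel with the Celltiter-Blue® assay.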

Assay [2] deals with Hedgehog pathway activation on 10T1/2/Smo#3 cells (C3H10T1/2 cells transfected with human Smoothened receptor). Kind of assay: Hedgehog pathway activation on 10T1/2/Smo#3 cells measured by ALP activity. The format is cell-based. The procedure, abridged:
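Inhibition of alkaline phosphatase induction, read fluorometrically from 4-methylumbelliferyl phosphate conversion, gave IC50 values; CellTiter-Blue tracked viability in parallel. Cells were the human Smo-transfected 10T1/2/Smo#3 pool, stimulated by 10-20% hShh conditioned medium or the Smo agonist SAG (500 nM).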

Setting [3] is: Mus musculus, Shh Light II, hShh activation, read-out: Shh (IC50, inhibition of Hedgehog pathway activation).
Where [4] appears, read: Mus musculus, C3H 10T1/2, 10T1/2/Smo#3 cells, measured by ALP activity, read-out: ALP (IC50, inhibition of Hedgehog pathway activation).
Where [5] appears, read: Mus musculus, Shh Light II, SAG activation (500 nM SAG), read-out: Shh Light II luciferase activity (SAG activation).
The mark [6] stands for this setting: Mus musculus, Shh Light II, hShh activation, read-out: Shh Light II luciferase activity (hShh activation).
Setting [7] is: Mus musculus, C3H 10T1/2, 10T1/2/Smo#3 cells, hShh activation, ALP activity, read-out: 10T1/2/Smo#3 ALP activity (hShh Activation).
Where [8] appears, read: hShh activation, read-out: Shh (IC50, inhibition of Hedgehog pathway activation).
The mark [9] stands for this setting: 10T1/2/Smo#3 cells, measured by ALP activity, read-out: ALP (IC50, inhibition of Hedgehog pathway activation).

Where two headings read alike, the source gives them in different places.

`CCOC(=O)C=Cc1cccc(C(=O)Nc2ccc3nc(-c4ccc(C)c(NC(=O)C(C)(C)C)c4)cn3n2)c1` [compound 602]: the IC50 in assay [1] (setting [3]) worked out at 155 nM; in assay [2] (setting [4]) it was 314 nM.
For the molecule `Cc1ccc(-c2cn3nc(-c4ncccc4C(F)(F)F)ccc3n2)cc1NC(=O)C(C)(C)C` [Example 400, N-(2-methyl-5-(6-(3-(trifluoromethyl)pyridin-2-yl)imidazo[1,2-b]pyridazin-2-yl)phenyl)pivalamide], the IC50 in assay [1] (setting [5]) was less than 300 nM; in assay [1] (setting [3]), 11 nM; in assay [1] (setting [6]) it was less than 300 nM; in assay [2] (setting [7]) it was less than 300 nM; in assay [2] (setting [4]) it was 39 nM.
With `CCCC(C)(C)C(=O)Nc1cc(-c2cn3nc(-c4cccnc4C(F)(F)F)ccc3n2)c(F)cc1Cl` [Example 662, N-(2-chloro-4-fluoro-5-(6-(2-(trifluoromethyl)pyridin-3-yl)imidazo[1,2-b]pyridazin-2-yl)phenyl)-2,2-dimethylpentanamide], the IC50 is less than 300 nM in assay [1] (setting [5]); 39 nM in assay [1] (setting [3]); less than 300 nM in assay [1] (setting [6]); less than 300 nM in assay [2] (setting [7]); 161 nM in assay [2] (setting [4]).
With `COc1ccc(-c2ccc3nc(-c4ccc(C(F)(F)F)c(NC(=O)C(C)(C)C)c4)cn3n2)cc1` [Example 244, N-(5-(6-(4-methoxyphenyl)imidazo[1,2-b]pyridazin-2-yl)-2-(trifluoromethyl)phenyl)pivalamide], the values for the IC50 in assay [1] (setting [3]) and in assay [2] (setting [4]) were 308 nM and 1630 nM, respectively.
Consider `Cc1c(-c2ccccc2)nc2ccc(N3CCNCC3)nn12` [Example 145, 3-methyl-2-phenyl-6-(piperazin-1-yl)imidazo[1,2-b]pyridazine], for which the IC50 in assay [1] (setting [5]) was 3000 to 30000 nM; in assay [1] (setting [3]) it was 5440 nM; in assay [1] (setting [6]), 3000 to 30000 nM; in assay [2] (setting [7]), 3000 to 30000 nM; in assay [2] (setting [4]), 4780 nM.
In the case of `CC(C)(C)C(=O)Nc1cc(-c2cn3nc(C4CC4)ccc3n2)ccc1C(F)(F)F` [Example 139, N-(5-(6-cyclopropylimidazo[1,2-b]pyridazin-2-yl)-2-(trifluoromethyl)phenyl)pivalamide], the IC50 was determined as 186 nM in assay [1] (setting [3]) and 451 nM in assay [2] (setting [4]).
In the same order, the values of `Cc1ccc(-c2cn3nc(-c4cccnc4C(F)(F)F)ccc3n2)cc1NC(=O)NC1CC1` [Example 651, 1-cyclopropyl-3-(2-methyl-5-(6-(2-(trifluoromethyl)pyridin-3-yl)imidazo[1,2-b]pyridazin-2-yl)phenyl)urea] are 139 nM and 127 nM.
With `CCOc1ccc2nc(-c3ccc(C(F)(F)F)c(-c4ccccn4)c3)cn2n1` [Example 218, 6-ethoxy-2-(3-(pyridin-2-yl)-4-(trifluoromethyl)phenyl)imidazo[1,2-b]pyridazine], the IC50 in assay [1] (setting [5]) is 3000 to 30000 nM; in assay [1] (setting [3]), 1720 nM; in assay [1] (setting [6]), 300 to 3000 nM; in assay [2] (setting [7]), 300 to 3000 nM; in assay [2] (setting [4]), 2120 nM.
Consider `Cc1ccc(-c2nc3ccc(-c4cccnc4C(F)(F)F)nn3c2Cl)cc1NC(=O)C(C)(C)C` [Example 641, N-(5-(3-chloro-6-(2-(trifluoromethyl)pyridin-3-yl)imidazo[1,2-b]pyridazin-2-yl)-2-methylphenyl)pivalamide], for which the IC50 in assay [1] (setting [3]) was 76 nM; in assay [2] (setting [4]) it was 34 nM.
For the molecule `CNC1CCN(c2ccc3nc(-c4ccc(C)c(NC(=O)C(C)(C)C)c4)cn3n2)C1` (stereo not drawn) [Example 360, N-(2-methyl-5-(6-(3-(methylamino)pyrrolidin-1-yl)imidazo[1,2-b]pyridazin-2-yl)phenyl)pivalamide], the IC50 in assay [1] (setting [8]) was 26 nM; in assay [2] (setting [9]) it was 32 nM.
Turning to `CC(C)(C)C(=O)Nc1cc(-c2cn3nc(N4CCC(O)CC4)ccc3n2)ccc1C(F)(F)F` [Example 237, N-(5-(6-(4-hydroxypiperidin-1-yl)imidazo[1,2-b]pyridazin-2-yl)-2-(trifluoromethyl)phenyl)pivalamide], the IC50 was determined as 245 nM in assay [1] (setting [3]) and 211 nM in assay [2] (setting [4]).
For the molecule `COc1ccc2nc(-c3ccc(C)c(NC(=O)c4ccc(F)cc4Cl)c3)cn2n1` [Example 98, 2-chloro-4-fluoro-N-(5-(6-methoxyimidazo[1,2-b]pyridazin-2-yl)-2-methylphenyl)benzamide], the figures for the IC50 in assay [1] (setting [3]) and in assay [2] (setting [4]) were 1340 nM and 2040 nM, respectively.
`Cc1ccc(-c2cn3nc(-c4cc(C(N)=NO)ccc4Cl)ccc3n2)cc1NC(=O)C(C)(C)C` [compound 569]: the IC50 in assay [1] (setting [5]) is 300 to 3000 nM; in assay [1] (setting [3]), 32 nM; in assay [1] (setting [6]), less than 300 nM; in assay [2] (setting [7]) it was less than 300 nM; in assay [2] (setting [4]) it was 86 nM.
With `Cc1ccc(-c2cn3nc(N4CCC(N(C)C)C4)ccc3n2)cc1NC(=O)C(C)(C)C` (stereo not drawn) [Example 361, N-(5-(6-(3-(dimethylamino)pyrrolidin-1-yl)imidazo[1,2-b]pyridazin-2-yl)-2-methylphenyl)pivalamide], the IC50 in assay [1] (setting [3]) was determined as 84 nM; in assay [2] (setting [4]), 110 nM.
`Cc1c(NC(=O)C(C)(C)C)cccc1-c1cn2nc(-c3ccccc3F)ccc2n1` [Example 219, N-(3-(6-(2-fluorophenyl)imidazo[1,2-b]pyridazin-2-yl)-2-methylphenyl)pivalamide]: the IC50 in assay [1] (setting [5]) was 3000 to 30000 nM; in assay [1] (setting [3]), 1260 nM; in assay [1] (setting [6]) it was 300 to 3000 nM; in assay [2] (setting [7]) it was 300 to 3000 nM; in assay [2] (setting [4]), 952 nM.
For the molecule `COCCN(CCOC)c1ccc2nc(-c3ccc(C(F)(F)F)c(NC(=O)C(C)(C)C)c3)cn2n1` [Example 380, N-(5-(6-(bis(2-methoxyethyl)amino)imidazo[1,2-b]pyridazin-2-yl)-2-(trifluoromethyl)phenyl)pivalamide], the results for the IC50 in assay [1] (setting [3]) and in assay [2] (setting [4]) were 273 nM and 383 nM, respectively.
Regarding `Cc1ccc(-c2cn3nc(-c4cc(F)ccc4C(F)(F)F)ccc3n2)cc1NC(=O)C(C)(C)C` [Example 281, N-(5-(6-(5-fluoro-2-(trifluoromethyl)phenyl)imidazo[1,2-b]pyridazin-2-yl)-2-methylphenyl)pivalamide], the IC50 in assay [1] (setting [3]) worked out at 72 nM; in assay [2] (setting [4]), 38 nM.
Regarding `Cc1ccc(-c2cn3nc(-c4cc(C(F)(F)F)ccc4F)ccc3n2)cc1NC(=O)C(C)(C)C` [Example 221, N-(5-(6-(2-fluoro-5-(trifluoromethyl)phenyl)imidazo[1,2-b]pyridazin-2-yl)-2-methylphenyl)pivalamide], the IC50 in assay [1] (setting [3]) is 86 nM; in assay [2] (setting [4]), 105 nM.
Turning to `CC(C)(C)C(=O)Nc1cc(-c2cn3nc(Cc4ccccc4)ccc3n2)ccc1C(F)(F)F` [Example 231, N-(5-(6-benzylimidazo[1,2-b]pyridazin-2-yl)-2-(trifluoromethyl)phenyl)pivalamide], the IC50 in assay [1] (setting [5]) was 3000 to 30000 nM; in assay [1] (setting [3]), 905 nM; in assay [1] (setting [6]), 300 to 3000 nM; in assay [2] (setting [7]), 300 to 3000 nM.
As for `CC(C)(C)C(=O)Nc1cc(-c2cn3cc(-c4cc(C(F)(F)F)ccc4F)ccc3n2)ccc1C(F)(F)F` [Example 84, N-(5-(6-(2-fluoro-5-(trifluoromethyl)phenyl)imidazo[1,2-a]pyridin-2-yl)-2-(trifluoromethyl)phenyl)pivalamide], the figures for the IC50 in assay [1] (setting [3]) and in assay [2] (setting [4]) were 1580 nM and 2490 nM, respectively.
Consider `Cc1cccc(-c2ccc3nc(-c4ccc(C(F)(F)F)c(NC(=O)C(C)(C)C)c4)cn3n2)n1` [Example 149, N-(5-(6-(6-methylpyridin-2-yl)imidazo[1,2-b]pyridazin-2-yl)-2-(trifluoromethyl)phenyl)pivalamide], for which the IC50 in assay [1] (setting [5]) is 300 to 3000 nM; in assay [1] (setting [3]), 1020 nM; in assay [1] (setting [6]), 300 to 3000 nM; in assay [2] (setting [7]) it was 300 to 3000 nM; in assay [2] (setting [4]) it was 1750 nM.
For the molecule `Cc1ccc(-c2cn3nc(N4CC[C@@H](N(C)C)C4)ccc3n2)cc1NC(=O)C(C)(C)C` [Example 472, (R)-N-(5-(6-(3-(dimethylamino)pyrrolidin-1-yl)imidazo[1,2-b]pyridazin-2-yl)-2-methylphenyl)pivalamide], the IC50 in assay [1] (setting [3]) was determined as 84 nM; in assay [2] (setting [4]), 110 nM.
With `CC(C)(C)C(=O)Nc1cc(-c2cn3nc(N4CCC(O)C4)ccc3n2)ccc1C(F)(F)F` (stereo not drawn) [Example 467, N-(5-(6-(3-hydroxypyrrolidin-1-yl)imidazo[1,2-b]pyridazin-2-yl)-2-(trifluoromethyl)phenyl)pivalamide], the IC50 in assay [1] (setting [8]) came to 115 nM; in assay [2] (setting [9]), 114 nM.
Consider `Cc1ccc(-c2cn3nc(-c4cc(C#N)ccc4F)ccc3n2)cc1NC(=O)C(C)(C)C` [Example 274, N-(5-(6-(5-cyano-2-fluorophenyl)imidazo[1,2-b]pyridazin-2-yl)-2-methylphenyl)pivalamide], for which the IC50 in assay [1] (setting [3]) came to 144 nM; in assay [2] (setting [4]), 20 nM.
Turning to `Cc1ccc(-c2cn3nc(-c4cnccc4C(F)(F)F)ccc3n2)cc1NC(=O)C(C)(C)C` [Example 364, N-(2-methyl-5-(6-(4-(trifluoromethyl)pyridin-3-yl)imidazo[1,2-b]pyridazin-2-yl)phenyl)pivalamide], the IC50 is 3 nM in assay [1] (setting [3]) and 1 nM in assay [2] (setting [4]).
For `Cc1ccccc1-c1ccc2nc(-c3ccc(C(F)(F)F)c(NC(=O)C(C)(C)C)c3)cn2n1` [Example 241, N-(5-(6-o-tolylimidazo[1,2-b]pyridazin-2-yl)-2-(trifluoromethyl)phenyl)pivalamide], the values for the IC50 in assay [1] (setting [3]) and in assay [2] (setting [4]) were 208 nM and 96 nM, respectively.

Values taken from patent publication US8871767B2, “2-arylimidazo[1,2-B]pyridazine, 2-phenylimidazo[1,2-A]pyridine, and 2-phenylimidazo[1,2-A]pyrazine derivatives” (Hengrui (USA) Ltd., priority 2010, dated 2014).
